Publication doi:10.1101/2020.02.18.955294v1 (biorxiv, 2020)

Target: NC1 (DGCR8 dimer) (Homo sapiens, UniProt Q8WYQ5, P351A)
Assay: biochemical

Chain of NC1 (DGCR8 dimer) (Q8WYQ5 276-751 P351A): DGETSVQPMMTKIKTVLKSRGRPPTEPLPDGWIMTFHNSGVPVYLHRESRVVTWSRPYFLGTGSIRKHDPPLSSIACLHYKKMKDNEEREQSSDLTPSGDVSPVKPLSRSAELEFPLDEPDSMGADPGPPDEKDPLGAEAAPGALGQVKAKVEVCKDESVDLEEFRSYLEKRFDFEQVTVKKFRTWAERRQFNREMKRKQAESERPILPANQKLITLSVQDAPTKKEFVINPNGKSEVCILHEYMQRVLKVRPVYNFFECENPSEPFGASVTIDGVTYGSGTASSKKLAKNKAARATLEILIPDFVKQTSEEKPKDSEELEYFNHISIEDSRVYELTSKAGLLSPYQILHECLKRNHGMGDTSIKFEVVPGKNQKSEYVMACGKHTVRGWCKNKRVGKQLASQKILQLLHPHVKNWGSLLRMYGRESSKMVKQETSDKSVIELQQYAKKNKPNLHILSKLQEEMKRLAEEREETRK

Kd: ~5 pM
SMILES: C=CC1=C(C)C2=Cc3c(C=C)c(C)c4[n]3[Fe]([Cl])[n]3c(c(C)c(CCC(=O)O)c3=CC3=NC(=C4)C(C)=C3CCC(=O)O)=CC1=N2 [Fe(III) heme]
